Test results from patent publication US10752612B2, “PLK4 inhibitors” (LUDWIG INSTITUTE FOR CANCER RESEARCH LTD, priority 2015, dated 2020).

Test system: wild-type Plk4-GFP NIH/3T3 cells
Assay: Centriole overduplication assay, NIH/3T3 overexpressing wild-type Plk4-GFP
Format: cell-based, mouse
Procedure: For generation of Plk4-GFP inducible NIH/3T3 cells, a mouse Plk4 cDNA C-terminally fused to eGFP was cloned into the lentiviral vector pLVX-TRE3G (Clontech). The G95L point mutation was generated by Quikchange mutagenesis (Agilent Technologies). Plasmids were transfected into HEK-293T cells using the Lenti-X HTX packaging system (Clontech), following manufacturer's instructions. 48 hours after transfection, virus-containing culture supernatant was harvested and added to the growth medium of Tet-On 3G NIH/3T3 cells (Clontech)+8 μg/ml polybrene (EMD Millipore).
Centriole overduplication assay. Tet-On 3G NIH/3T3 cells (Clontech) stably transduced with GFP, Plk4-GFP or Plk4(G95L)-GFP were seeded onto coverslips in a 12-well plate at 30,000 cells/well. Transgene expression was induced with 1 μg/ml doxycycline. […] Treated cells were incubated for 40 hours, and then washed with PBS and fixed in 100% methanol (−20° C., 5 minutes). Fixed samples were stained for γ-tubulin and Cep192, and mounted onto slides. Image acquisition and deconvolution were performed on the DeltaVision system equipped with a 100×1.3 NA U-PlanApo objective. Subsequent image processing was performed in ImageJ.

COc1c(Nc2cc(C)[nH]n2)nc(Sc2ccc(S(=O)(=O)Cc3cccc([N+](=O)[O-])c3F)cc2F)nc1N1CCOCC1 [Centrinone, 2-((2-fluoro-4-((2-fluoro-3-nitrobenzyl)sulfonyl)phenyl)thio)-5-methoxy-N-(5-methyl-1H-pyrazol-3-yl)-6-morpholinopyrimidin-4-amine]
centriole amplification: blocked centriole amplification
